Test results taken from US9777017B2, “Tricyclic fused thiophene derivatives as JAK inhibitors” (Incyte Corporation, priority 2012, dated 2017).
Where a name gives a salt, the structure may show the parent alone.

Legend:
Type in all cases: biochemical
human JAK1 [1] = assay: In vitro JAK kinase assay (HTRF, phosphorylation of a biotinylated peptide), JAK1; set-up: key to JAK1 IC50 (nM): +indicates an IC50 of ≦100 nM; ++indicates an IC50 of ≦1000 nM; +++indicates an IC50 of ≦2000 nM; ++++indicates an IC50 of >2000 nM; +++++indicates that the IC50 was greater than the highest concentration tested; conditions: ratio of IC50s, 1 mM ATP
Description: (§1) Compounds herein were tested for inhibitory activity of JAK targets according to the following in vitro assay described in Park et al., Analytical Biochemistry 1999, 269, 94-104. The catalytic domains of human JAK1 (a.a. 837-1142), JAK2 (a.a. 828-1132) and JAK3 (a.a. 781-1124) were expressed using baculovirus in insect cells and purified. The catalytic activity of JAK1, JAK2 or JAK3 was assayed by measuring the phosphorylation of a biotinylated peptide. The phosphorylated peptide was detected by homogenous time resolved fluorescence (HTRF). IC50s of compounds were measured for each kinase in the 40 μL reactions that contain the enzyme, ATP and 500 nM peptide in 50 mM Tris (pH 7.8) buffer with 100 mM NaCl, 5 mM DTT, and 0.1 mg/mL (0.01%) BSA. For the 1 mM IC50 measurements, ATP concentration in the reactions was 1 mM. Reactions were carried out at room temperature for 1 hour and then stopped with 20 μL 45 mM EDTA, 300 nM SA-APC, 6 nM Eu-Py20 in assay buffer (Perkin Elmer, Boston, Mass.). Binding to the Europium labeled antibody took place for 40 minutes and HTRF signal was measured on a PHERA star plate reader (BMG, Cary, N.C.). The Example compounds were each tested in the Example A assay (see Table 1 for data for the compounds of the examples as tested by the assay of Example A at 1 mM ATP).

human JAK1 [2] = target: human JAK1 (Homo sapiens, UniProt P23458); assay: as above; set-up: key to JAK1 IC50 (nM): +indicates an IC50 of ≦100 nM; ++indicates an IC50 of ≦1000 nM; +++indicates an IC50 of ≦2000 nM; ++++indicates an IC50 of >2000 nM; +++++indicates that the IC50 was greater than the highest concentration tested; conditions: 1 mM ATP
Description: as §1

human JAK2 = human JAK2 (Homo sapiens (Human), UniProt O60674); assay: In vitro JAK kinase assay (HTRF, phosphorylation of a biotinylated peptide), JAK2; set-up: key to JAK2 IC50 (nM): +indicates an IC50 of ≦100 nM; ++indicates an IC50 of ≦1000 nM; +++indicates an IC50 of ≦2000 nM; ++++indicates an IC50 of >2000 nM; +++++indicates that the IC50 was greater than the highest concentration tested; conditions: 1 mM ATP
Description: as §1

Sequence of human JAK2 (O60674 828-1132): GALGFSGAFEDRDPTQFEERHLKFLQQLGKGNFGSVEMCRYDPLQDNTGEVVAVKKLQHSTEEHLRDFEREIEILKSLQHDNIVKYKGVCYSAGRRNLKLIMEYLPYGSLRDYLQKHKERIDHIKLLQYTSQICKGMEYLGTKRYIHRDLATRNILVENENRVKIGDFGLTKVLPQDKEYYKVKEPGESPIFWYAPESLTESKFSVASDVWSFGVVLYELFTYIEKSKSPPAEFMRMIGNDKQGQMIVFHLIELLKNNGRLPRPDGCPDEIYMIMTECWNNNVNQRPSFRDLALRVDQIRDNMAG

Question: Which JAK2/JAK1 (human JAK1 [1]) does the source give for C[C@@H](O)c1nc2cnc3ccsc3c2n1C1CCN(CC(F)(F)F)CC1 [Example 15, (1R)-1-{1-[1-(2,2,2-Trifluoroethyl)piperidin-4-yl]-1H-imidazo[4,5-d]thieno[3,2-b]pyridin-2-yl}ethanol] here?
Answer: >9

Question: What about the IC50 (human JAK1 [2]) of the same compound?
Answer: ≤ 2000 nM

Question: And the “JAK2 IC50 (nM)” value (human JAK2)?
Answer: +++++

Question: With C[C@@H](O)c1nc2cnc3ccsc3c2n1[C@H]1CCCN(C(=O)CCc2cccnc2)C1 [Example 54, (1R)-1-{1-[(3S)-1-(3-Pyridin-3-ylpropanoyl)piperidin-3-yl]-1H-imidazo[4,5-d]thieno[3,2-b]pyridin-2-yl}ethanol] as the compound, how does the JAK2/JAK1 (human JAK1 [1]) read?
Answer: >10

Question: What about the IC50 (human JAK1 [2]) of the same compound?
Answer: ≤ 1000 nM

Question: What about the “JAK2 IC50 (nM)” value (human JAK2) of the same compound?
Answer: +++++

Question: What does the source list for C[C@@H](O)c1nc2cnc3ccsc3c2n1[C@H]1CCN(CCCC#N)C1 [Example 65, 4-((3S)-3-{2-[(1R)-1-Hydroxyethyl]-1H-imidazo[4,5-d]thieno[3,2-b]pyridin-1-yl}pyrrolidin-1-yl)butanenitrile]?
Answer: JAK2/JAK1 (human JAK1 [1]): >10; IC50 (human JAK1 [2]): ≤ 1000 nM; JAK2 IC50 (nM) (human JAK2): +++++

Question: What does the source list for C[C@@H](O)c1nc2cnc3ccsc3c2n1C1CCC(NCCC#N)CC1 (single isomer, unassigned) [30 (second peak)]?
Answer: JAK2/JAK1 (human JAK1 [1]): >10; IC50 (human JAK1 [2]): ≤ 2000 nM; JAK2 IC50 (nM) (human JAK2): +++++

Question: With CCc1nc2cnc3ccsc3c2n1[C@H]1CC[C@H](CC#N)[C@H](O)C1 (racemic) [Example 35] as the compound, how does the IC50 (human JAK1 [2]) read?
Answer: ≤ 100 nM

Question: What about the IC50 (human JAK2) of the same compound?
Answer: > 2000 nM

Question: With N#CC[C@H]1CC[C@H](n2c(CO)nc3cnc4ccsc4c32)CO1 [Example 91, {(2R,5S)-5-[2-(Hydroxymethyl)-1H-imidazo[4,5-b]thieno[3,2-b]pyridin-1-yl]tetrahydro-2H-pyran-2-yl}acetonitrile] as the compound, how does the JAK2/JAK1 (human JAK1 [1]) read?
Answer: >10

Question: What about the IC50 (human JAK1 [2]) of the same compound?
Answer: ≤ 100 nM

Question: What about the IC50 (human JAK2) of the same compound?
Answer: ≤ 1000 nM

Question: How did the JAK2/JAK1 (human JAK1 [1]) turn out when C[C@@H](O)c1nc2cnc3ccsc3c2n1[C@H]1CC[C@@H](n2cncn2)CC1 [Example 6, (1R)-1-{1-[cis-4-(1H-1,2,4-Triazol-1-yl)cyclohexyl]-1H-imidazo[4,5-d]thieno[3,2-b]pyridin-2-yl}ethanol] was run?
Answer: >6

Question: What about the IC50 (human JAK1 [2]) of the same compound?
Answer: ≤ 2000 nM

Question: And the “JAK2 IC50 (nM)” value (human JAK2)?
Answer: +++++

Question: How did the JAK2/JAK1 (human JAK1 [1]) turn out when C[C@@H](O)c1nc2cnc3ccsc3c2n1[C@H]1CCCN(C(=O)CCC#N)C1 [Example 58, 4-((3S)-3-{2-[(1R)-1-Hydroxyethyl]-1H-imidazo[4,5-d]thieno[3,2-b]pyridin-1-yl}piperidin-1-yl)-4-oxobutanenitrile] was run?
Answer: >10

Question: And the IC50 (human JAK1 [2])?
Answer: ≤ 100 nM

Question: And the “JAK2 IC50 (nM)” value (human JAK2)?
Answer: +++++

Question: For C[C@@H](O)c1nc2cnc3ccsc3c2n1[C@H]1CC[C@H](CNC(=O)OC2CCOC2)CC1 (stereo partly drawn) [Example 85, Tetrahydrofuran-3-yl [(trans-4-{2-[(1R)-1-hydroxyethyl]-1H-imidazo[4,5-d]thieno[3,2-b]pyridin-1-yl}cyclohexyl)methyl]carbamate], which JAK2/JAK1 (human JAK1 [1]) is on record?
Answer: >10

Question: And the IC50 (human JAK1 [2])?
Answer: ≤ 100 nM

Question: What about the “JAK2 IC50 (nM)” value (human JAK2) of the same compound?
Answer: +++++

Question: CNS(=O)(=O)C[C@H]1CC[C@H](n2c([C@@H](C)O)nc3cnc4ccsc4c32)CC1 [Example 14, 1-(trans-4-{2-[(1R)-1-hydroxyethyl]-1H-imidazo[4,5-d]thieno[3,2-b]pyridin-1-yl}cyclohexyl)-N-methylmethanesulfonamide] was tested. Which JAK2/JAK1 (human JAK1 [1]) did it give?
Answer: >5

Question: What about the IC50 (human JAK1 [2]) of the same compound?
Answer: ≤ 1000 nM

Question: What about the “JAK2 IC50 (nM)” value (human JAK2) of the same compound?
Answer: +++++

Question: Which JAK2/JAK1 (human JAK1 [1]) does the source give for C[C@@H](O)c1nc2cnc3ccsc3c2n1C1CCCCC1 [Example 13, (1R)-1-(1-Cyclohexyl-1H-imidazo[4,5-d]thieno[3,2-b]pyridin-2-yl)ethanol] here?
Answer: >10

Question: What about the IC50 (human JAK1 [2]) of the same compound?
Answer: ≤ 100 nM

Question: What about the IC50 (human JAK2) of the same compound?
Answer: > 2000 nM

Question: Which results are given for COC(=O)NC[C@H]1CC[C@H](n2c([C@@H](C)O)nc3cnc4ccsc4c32)CC1 [Example 78, Methyl [(trans-4-{2-[(1R)-1-hydroxyethyl]-1H-imidazo[4,5-d]thieno[3,2-b]pyridin-1-yl}cyclohexyl)methyl]carbamate]?
Answer: JAK2/JAK1 (human JAK1 [1]): >10; IC50 (human JAK1 [2]): ≤ 100 nM; IC50 (human JAK2): ≤ 1000 nM

Question: With “((1R,2S,4S)-2-Hydroxy-4-{2-[(1R)-1-hydroxyethyl]-1H-imidazo[4,5-d]thieno[3,2-b]pyridin-1-yl}cyclohexyl)acetonitrile trifluoacetate and ((1S,2R,4R)-2-hydroxy-4-{2-[(1R)-1-hydroxyethyl]-1H-imidazo[4,5-d]thieno[3,2-b]pyridin-1-yl}cyclohexyl)acetonitrile trifluoacetate [37 (second peak)]” as the compound, how does the JAK2/JAK1 (human JAK1 [1]) read?
Answer: >10

Question: And the IC50 (human JAK1 [2])?
Answer: ≤ 100 nM

Question: And the IC50 (human JAK2)?
Answer: ≤ 1000 nM

Question: For “[(1R,2S,4S)-4-(2-Ethyl-1H-imidazo[4,5-d]thieno[3,2-b]pyridin-1-yl)-2-hydroxycyclohexyl]acetonitrile and [(1S,2R,4R)-4-(2-ethyl-1H-imidazo[4,5-d]thieno[3,2-b]pyridin-1-yl)-2-hydroxycyclohexyl]acetonitrile [40 (second peak)]”, which IC50 (human JAK1 [2]) is on record?
Answer: > 2000 nM

Question: What about the “JAK2 IC50 (nM)” value (human JAK2) of the same compound?
Answer: +++++

Question: For Cc1nn2cnc3ccsc3c2c1[C@H]1CC[C@H](CC#N)CC1 [Example 77, [trans-4-(8-Methylpyrazolo[1,5-c]thieno[2,3-e]pyrimidin-9-yl)cyclohexyl]acetonitrile], which IC50 (human JAK1 [2]) is on record?
Answer: ≤ 100 nM

Question: What about the IC50 (human JAK2) of the same compound?
Answer: ≤ 100 nM

Question: For C[C@@H](O)c1nc2cnc3ccsc3c2n1[C@H]1CC[C@H](CC#N)CC1 [Example 2, (trans-4-{2-[(1R)-1-Hydroxyethyl]-1H-imidazo[4,5-d]thieno[3,2-b]pyridin-1-yl}cyclohexyl)acetonitrile], which JAK2/JAK1 (human JAK1 [1]) is on record?
Answer: >10

Question: With C[C@@H](O)c1nc2cnc3ccsc3c2n1C1CCC(O)(CC#N)CC1 (single isomer, unassigned) [24 (second peak)] as the compound, how does the IC50 (human JAK1 [2]) read?
Answer: ≤ 1000 nM

Question: With Cc1nc2cnc3ccsc3c2n1[C@@H]1CC[C@@H](CC#N)[C@@H](O)C1 (mixture of isomers) [Example 34, Mixture of [(1R,2R,4S)-2-hydroxy-4-(2-methyl-1H-imidazo[4,5-d]thieno[3,2-b]pyridin-1-yl)cyclohexyl]acetonitrile trifluoroacetate and [(1S,2S,4R)-2-hydroxy-4-(2-methyl-1H-imidazo[4,5-d]thieno[3,2-b]pyridin-1-yl)cyclohexyl]acetonitrile trifluoroacetate] as the compound, how does the JAK2/JAK1 (human JAK1 [1]) read?
Answer: >10

Question: C[C@@H](O)c1nc2cnc3ccsc3c2n1[C@H]1CCCN(C(=O)CCC(F)(F)F)C1 [Example 52, (1R)-1-{1-[(3S)-1-(4,4,4-Trifluorobutanoyl)piperidin-3-yl]-1H-imidazo[4,5-d]thieno[3,2-b]pyridin-2-yl}ethanol] was tested. Which JAK2/JAK1 (human JAK1 [1]) did it give?
Answer: >10

Question: And the IC50 (human JAK1 [2])?
Answer: ≤ 1000 nM

Question: C[C@@H](O)c1nc2cnc3ccsc3c2n1C1CCNCC1F (single isomer, unassigned) [9 (2nd peak)] was tested. Which JAK2/JAK1 (human JAK1 [1]) did it give?
Answer: >10

Question: And the “JAK2 IC50 (nM)” value (human JAK2)?
Answer: +++++

Question: How did the IC50 (human JAK1 [2]) turn out when “[(1R,2S,4S)-4-(2-Methyl-1H-imidazo[4,5-d]thieno[3,2-b]pyridin-1-yl)-2-hydroxycyclohexyl]acetonitrile and [(1S,2R,4R)-4-(2-methyl-1H-imidazo[4,5-d]thieno[3,2-b]pyridin-1-yl)-2-hydroxycyclohexyl]acetonitrile [41 (second peak)]” was run?
Answer: > 2000 nM

Question: What about the “JAK2 IC50 (nM)” value (human JAK2) of the same compound?
Answer: +++++

Question: How did the “JAK1 IC50 (nM)” value (human JAK1 [2]) turn out when C[C@@H](O)c1nc2cnc3ccsc3c2n1C1CCNCC1F (stereo partly drawn) [9 (1st peak), (1R)-1-[1-(3-Fluoropiperidin-4-yl)-1H-imidazo[4,5-d]thieno[3,2-b]pyridin-2-yl]ethanol] was run?
Answer: +++++

Question: What about the “JAK2 IC50 (nM)” value (human JAK2) of the same compound?
Answer: +++++
